Test results published in US20220033432A1, “ANTI-HEPATITIS B VIRUS AGENT” (priority 2019, published 2022).
Where two headings read alike, the source gives them in different places.

Experiments:
HBV = assay: Anti-HBV activity: intracellular HBV DNA by quantitative PCR in HepG2.2.15 cells; assay type: cell-based; conditions: Hepatitis B virus, read-out: EC50 (50% effective concentration), anti-HBV activity
Experimental: Anti-HBV activity was evaluated by quantitative PCR for determining the amount of HBV DNA in cells on the seventh day after the addition of the agent, using the HepG2.2.15 cell line of HBV-producing cells obtained by introducing a gene having a length twice that of the HBV genome into the human liver cancer cell line HepG2. For PCR of HBV DNA, a forward primer (HBV-S190F; 5′-GCT CGT OTT ACA GGC GGG-3′: SEQ ID NO: 1) and a reverse primer (HBV-S703R; 5′-GAA CCA CTG AAC AAA TOG CAC TAG TA-3′: SEQ ID NO: 2) were used. PCR was performed by carrying out a reaction at 95° C. for 10 sec, 62° C. for 10 sec, and 72° C. for 30 sec for 35 cycles.
Specifically, HepG2.2.15 cells were seeded at a concentration of 1×10^5 cells/well. 24 hours later, the compounds of Example 1 and Comparative Example 1 were diluted to have a concentration of 0, 0.49, 0.97, 1.95, 3.90, 7.81, 15.6, 31.3, 62.5, 125, 250, 500, and 1000 nM, and added to the cells. After the cells were cultured for 7 days, each cytoplasmic compartment was collected, and DNA was purified by phenol-chloroform extraction. 20 ng of the purified DNA was used to measure the amount of intracellular HBV DNA by quantitative PCR.
The EC50 (50% effective concentration) was calculated from a graph showing the relationship between the concentration of the compound and anti-HBV activity.

[1] = Cytotoxicity test (WST-1) in HepG2 NTCP-myc cells; assay type: cell-based; conditions: human, 7 days culture, read-out: CC50 (50% cytotoxic concentration)
Experimental: HepG2 NTCP-myc cells were seeded at a concentration of 2×10^4 cells/well. 24 hours later, the compound of Example 1 was diluted to have a concentration of 0, 0.49, 0.97, 1.95, 3.90, 7.81, 15.6, 31.3, 62.5, 125, 250, 500, and 1000 nM, and added to the cells. The HepG2 NTCP-myc cells were cultured for 7 days. After the culture, 10 μl of Premix WST-1 Cell Proliferation Assay System (TaKaRa) was added, and the cells were cultured at 37° C. for 2 hours. Thereafter, absorbance was determined at 450 nm using a microplate reader.
The CC50 (50% cytotoxic concentration) was calculated from a graph showing the relationship between the concentration of the compound and cytotoxicity.

[2] = 168 h, HepG2.2.15 cells, intracellular HBV DNA, day 7 after addition

SMILES | EC50 (HBV; [2]) [µM] | CC50 at 7 days [1] [µM] | EC50 (HBV; HepG2.2.15, 168 h) [µM]
OC[C@H]1O[C@@H](n2cnc3c(Cl)nc(Cl)nc32)[C@@H](F)[C@@H]1O [Comparative Example 1, 2,6-dichloro-9-((2R,3S,4R,5R)-3-fluoro-4-hydroxy-5-(hydroxymethyl)tetrahydrofuran-2-yl)-9H-purine, reference compound] | > 10 |  | 
Nc1nc(Cl)c2ncn([C@@H]3O[C@H](CO)C(O)C3F)c2n1 (stereo partly drawn) [Example 1, 9-(2′-deoxy-2′-fluoro-β-D-arabinofuranos-1′-yl)-2-amino-6-chloropurine] | 0.0118 | > 500 | 
Nc1nc(F)c2ncn([C@@H]3O[C@H](CO)C(O)C3F)c2n1 (stereo partly drawn) [Example 2, 9-(2′-deoxy-2′-fluoro-β-D-arabinofuranos-1′-yl)-2-amino-6-fluoropurine] | 0.88 | 337 | 
Nc1nc(I)c2ncn([C@@H]3O[C@H](CO)C(O)C3F)c2n1 (stereo partly drawn) [Example 3, 9-(2′-deoxy-2′-fluoro-β-D-arabinofuranos-1′-yl)-2-amino-6-] | 0.99 | > 500 | 
Nc1nc(N)c2ncn([C@@H]3O[C@H](CO)C(O)C3F)c2n1 (stereo partly drawn) [Example 4, 9-(2′-deoxy-2′-fluoro-β-D-arabinofuranos-1′-yl)-2-amino-6-aminopurine] |  | > 500 | 2.02
COc1nc(N)nc2c1ncn2[C@@H]1O[C@H](CO)C(O)C1F (stereo partly drawn) [Example 5, 9-(2′-deoxy-2′-fluoro-β-D-arabinofuranos-1′-yl)-2-amino-6-methoxypurine] | 1.63 | > 500 | 
N#Cc1nc(N)nc2c1ncn2[C@@H]1O[C@H](CO)C(O)C1F (stereo partly drawn) [Example 6, 9-(2′-deoxy-2′-fluoro-β-D-arabinofuranos-1′-yl)-2-amino-6-cyanopurine] | 0.93 | > 500 | 
